Among the test systems are EKVX NSCLC; HOP-62 NSCLC; HT29 colon; MOLT-4 leukemia; NCI-H522 lung; OVCAR-3 ovarian; OVCAR-8 ovarian; SK-OV-3 ovarian; SW-620 colon; UACC-257 melanoma.
Assay in all cases: NCI anticancer screen, dose series, 48 h

Values joined by “and” are separate entries in the source; they are usually repeats but may differ in a detail not shown here. Equal entries are not always repeated.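 How tested: cells in 96-well plates exposed to compound for 48 hours at five concentrations. GI50: concentration for 50% inhibition of growth. TGI is the concentration that stops growth completely.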

Take `NC(=O)CCCC(NCc1c2ccccc2nc2ccccc12)C(=O)O` (configuration not stated): the TGI with EKVX NSCLC is above 100 µM; with HOP-62 NSCLC, above 100 µM; in the assay with HT29 colon it was above 100 µM; in the assay with MOLT-4 leukemia, 66.2 µM; in the assay on NCI-H522 lung it was 67.7 µM; in the assay with OVCAR-3 ovarian, above 100 µM. The TGI in the assay with OVCAR-8 ovarian, with SK-OV-3 ovarian, with SW-620 colon and with UACC-257 melanoma was above 100 µM in each case.
`CCCCCCCSc1nc2c(C(=O)OCC)ncn2c2ccccc12`: the TGI in the assay on EKVX NSCLC, with HOP-62 NSCLC, with HT29 colon, in the assay on MOLT-4 leukemia, in the assay with OVCAR-3 ovarian and in the assay with OVCAR-8 ovarian was above 100 µM in each case. Besides, the TGI in the assay on SK-OV-3 ovarian, with SW-620 colon and in the assay with UACC-257 melanoma was above 100 µM throughout.
Take `N#CC(c1ccccc1)c1nc2ccc(=N)cc-2n(O)c1C(C#N)c1ccccc1` (configuration not stated): the TGI in the assay on EKVX NSCLC, in the assay with HOP-62 NSCLC, with HT29 colon, with MOLT-4 leukemia, in the assay with NCI-H522 lung and in the assay with OVCAR-3 ovarian was above 100 µM in each case. The TGI with OVCAR-8 ovarian, with SK-OV-3 ovarian, with SW-620 colon and in the assay with UACC-257 melanoma was above 100 µM in each case.
As to `COC(=O)C1=CSC2(S1)C(C(=O)OC)=CSc1c2ssc1=Nc1ccccc1` (configuration not stated), the TGI with EKVX NSCLC is above 100 µM; in the assay on HOP-62 NSCLC, 8.67 µM; in the assay on HT29 colon, 5.85 µM; with MOLT-4 leukemia, 3.55 µM; in the assay with NCI-H522 lung, 3.4 µM; in the assay with OVCAR-3 ovarian, above 100 µM. In addition, the TGI in the assay with OVCAR-8 ovarian is 6.23 µM; in the assay on SK-OV-3 ovarian, 9.9 µM; in the assay with SW-620 colon, 8.76 µM; with UACC-257 melanoma, 7.26 µM.
Take `O=c1oc2ccccc2c2c(=O)c3ccc(OC/C(=N/O)c4ccc(Cl)cc4)cc3oc12`: the TGI in the assay on HOP-62 NSCLC worked out at 31.5 µM; with MOLT-4 leukemia, 8.79 µM; in the assay on OVCAR-3 ovarian, 10.9 µM; with OVCAR-8 ovarian, 65.1 µM; with SK-OV-3 ovarian it was 24.3 µM; in the assay with SW-620 colon, 37 µM. Besides, the TGI with UACC-257 melanoma is above 100 µM.
`CN(C)CCNc1nc(-c2ccc3ccccc3c2)nc2nc[nH]c12`: the TGI came to 19.8 µM in the assay with EKVX NSCLC; 23.1 µM in the assay on HOP-62 NSCLC; 16.4 µM in the assay on HT29 colon; 18.6 µM with MOLT-4 leukemia; 6.22 µM with NCI-H522 lung; 21 µM in the assay on OVCAR-3 ovarian. Besides, the TGI stood at 24.4 µM in the assay with OVCAR-8 ovarian, 20.8 µM with SK-OV-3 ovarian, 24.6 µM in the assay on SW-620 colon and 19.5 µM with UACC-257 melanoma.
With `Cc1ccc(S(=O)(=O)NCCSCCNS(=O)(=O)c2ccc(C)cc2)cc1`, the TGI in the assay with HT29 colon, in the assay with MOLT-4 leukemia, with NCI-H522 lung, in the assay on OVCAR-3 ovarian, in the assay on OVCAR-8 ovarian and in the assay with SK-OV-3 ovarian was above 100 µM throughout. Besides, the TGI in the assay with SW-620 colon and with UACC-257 melanoma was above 100 µM each time.
For `Cc1ccc(Oc2ccc(C)cc2[N+](=O)[O-])cc1`, the TGI with EKVX NSCLC, in the assay on HOP-62 NSCLC, in the assay on HT29 colon, in the assay on MOLT-4 leukemia, in the assay with OVCAR-3 ovarian and in the assay with OVCAR-8 ovarian was above 100 µM each time. Further, the TGI in the assay on SK-OV-3 ovarian, in the assay with SW-620 colon and with UACC-257 melanoma was above 100 µM each time.
As for `CC(=O)C(O)N1C(=O)C=CC1=O` (configuration not stated), the GI50 in the assay on EKVX NSCLC was 21.2 µM and 18.7 µM; in the assay on NCI-H522 lung, > 25 µM and 13.5 µM; in the assay with OVCAR-3 ovarian, 11.6 mM. In addition, the TGI in the assay with EKVX NSCLC is 25 µM and 33.5 µM and 12.3 µM.
Take `CC(=O)Nc1ccccc1SCCSSCCSc1ccccc1NC(C)=O`: the TGI in the assay with EKVX NSCLC was above 100 µM; in the assay with HOP-62 NSCLC, above 100 µM; in the assay on HT29 colon, 76.8 µM; in the assay on MOLT-4 leukemia, above 100 µM; in the assay on NCI-H522 lung, 34.3 µM; in the assay on OVCAR-3 ovarian, above 100 µM. Moreover, the TGI with OVCAR-8 ovarian is above 100 µM; in the assay on SK-OV-3 ovarian, 61.7 µM; in the assay with SW-620 colon, above 100 µM; with UACC-257 melanoma, 45 µM.
Consider `CN(C)c1ccc(/C=N\NC(=O)CSCC(=O)N/N=C/c2ccc(N(C)C)cc2)cc1`, for which the TGI in the assay on EKVX NSCLC, in the assay on HOP-62 NSCLC, in the assay with HT29 colon, in the assay on MOLT-4 leukemia, in the assay on NCI-H522 lung and with OVCAR-3 ovarian was above 100 µM each time. Moreover, the TGI in the assay with OVCAR-8 ovarian, with SK-OV-3 ovarian, with SW-620 colon and in the assay with UACC-257 melanoma was above 100 µM throughout.
Turning to `O=c1ccc2cc(O)c(O)cc2o1`, the TGI in the assay with EKVX NSCLC, with HOP-62 NSCLC, in the assay on HT29 colon, in the assay with MOLT-4 leukemia, with NCI-H522 lung and in the assay with OVCAR-3 ovarian was above 100 µM in each case. Besides, the TGI with OVCAR-8 ovarian, with SK-OV-3 ovarian, in the assay on SW-620 colon and with UACC-257 melanoma was above 100 µM each time.
Turning to `NC(=O)NN=C(CS)CS`, the TGI was 33.7 µM with EKVX NSCLC; 41.9 µM in the assay on HOP-62 NSCLC; above 100 µM with HT29 colon; 65.8 µM with MOLT-4 leukemia; 55.2 µM with NCI-H522 lung; 51.3 µM in the assay with OVCAR-3 ovarian. Moreover, the TGI is 77.3 µM with OVCAR-8 ovarian, above 100 µM with SK-OV-3 ovarian, 60 µM in the assay on SW-620 colon and above 70.6 µM in the assay with UACC-257 melanoma.
On to `O=C(O[C@H]1[C@@H](O)[C@H](n2cnc3c(Cl)ncnc32)O[C@@H]1COC(c1ccccc1)(c1ccccc1)c1ccccc1)c1ccccc1`, for which the TGI worked out at 32.3 µM with EKVX NSCLC; 51.7 µM in the assay with HOP-62 NSCLC; 62.1 µM in the assay with HT29 colon; 17.9 µM in the assay on MOLT-4 leukemia; 91.5 µM with NCI-H522 lung; 35 µM with OVCAR-3 ovarian. The TGI was above 100 µM in the assay on OVCAR-8 ovarian, above 100 µM with SK-OV-3 ovarian, above 100 µM in the assay with SW-620 colon and 41.5 µM with UACC-257 melanoma.
On to `CCCN(C(=O)c1c(Cl)nnc(Cl)c1C(=O)c1cc(Cl)nnc1Cl)c1cc(Cl)nnc1Cl`, for which the TGI in the assay with EKVX NSCLC turned out to be 27.3 µM; in the assay on HOP-62 NSCLC, 48.8 µM; in the assay with HT29 colon, 43.4 µM; in the assay with MOLT-4 leukemia, 12.5 µM; in the assay with NCI-H522 lung it was 13.3 µM; with OVCAR-3 ovarian, 26.6 µM. The TGI in the assay on OVCAR-8 ovarian was 5.78 µM; with SK-OV-3 ovarian, above 100 µM; in the assay on SW-620 colon, 25.5 µM; in the assay with UACC-257 melanoma it was 42.1 µM.

The record behind these values is PubChem BioAssay (NCI).
